Measurements published in patent US20230136297A1, “Methods Of Treating Fabry Disease In Patients Having A Mutation In The GLA Gene” (Amicus Therapeutics, Inc., priority 2020, published 2023).
Substitutions are numbered along the chain they refer to.

How the values were obtained:
[1] = system: α-Gal A mutant form A29D; experiment: α-Gal A activity in lysates of transfected HEK-293 cells ± migalastat (HEK assay); format: cell-based, human
Description: (§1) Such mutations or variants are also referred to herein as “HEK assay amenable” mutations or variants.
(§2) The α-Gal A activity is expressed as the nmoles of free 4-MU released per milligram of protein per hour (nmol/mg/hr).

[2] = biological target: T1, α-Gal A mutant form A291S (Homo sapiens, UniProt P06280, A291S); experiment: as above; format: cell-based
T1 construct: expressed in transfected cells; host or cells: HEK-293
T1 sequence (P06280 32-429 A291S): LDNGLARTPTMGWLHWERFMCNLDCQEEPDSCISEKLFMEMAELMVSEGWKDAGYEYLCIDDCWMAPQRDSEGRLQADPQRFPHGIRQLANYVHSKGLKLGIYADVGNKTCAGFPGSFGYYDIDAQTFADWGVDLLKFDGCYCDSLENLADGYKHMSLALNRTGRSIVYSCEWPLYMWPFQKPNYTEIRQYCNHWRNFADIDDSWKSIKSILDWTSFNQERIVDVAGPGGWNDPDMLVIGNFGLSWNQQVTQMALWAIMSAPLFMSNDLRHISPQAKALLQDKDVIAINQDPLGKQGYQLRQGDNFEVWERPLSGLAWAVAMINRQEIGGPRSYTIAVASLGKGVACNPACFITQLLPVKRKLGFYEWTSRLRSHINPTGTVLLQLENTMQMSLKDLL
Description: as §1, §2

[3] = biological target: T2, α-Gal A mutant form G360A (Homo sapiens, UniProt P06280, G360A); experiment: as above; format: cell-based
T2 construct: expressed in transfected cells; host or cells: HEK-293
T2 sequence (P06280 32-429 G360A): T1 sequence (P06280 32-429 A291S) with S260A, G329A
Description: as §1, §2

[4] = biological target: T3, α-Gal A mutant form G375A (Homo sapiens, UniProt P06280, G375A); experiment: as above; format: cell-based
T3 construct: expressed in transfected cells; host or cells: HEK-293
T3 sequence (P06280 32-429 G375A): T1 sequence (P06280 32-429 A291S) with S260A, G344A
Description: as §1, §2

[5] = biological target: T4, α-Gal A mutant form I303T (Homo sapiens, UniProt P06280, I303T); experiment: as above; format: cell-based
T4 construct: expressed in transfected cells; host or cells: HEK-293
T4 sequence (P06280 32-429 I303T): T1 sequence (P06280 32-429 A291S) with S260A, I272T
Description: as §1, §2

[6] = biological target: T5, α-Gal A mutant form Y152N (Homo sapiens, UniProt P06280, Y152N); experiment: as above; format: cell-based
T5 construct: expressed in transfected cells; host or cells: HEK-293
T5 sequence (P06280 32-429 Y152N): T1 sequence (P06280 32-429 A291S) with Y121N, S260A
Description: as §1, §2

[7] = system: novel α-Gal A mutations A29D, R38S, N53Y, Y88C, V124G, I133F, A143V, Y152N, F159C, A160D, D165N, F169I, L180V, D182G, R196T, W209R, A257T, P259S, G271A, S276T …; experiment: HEK assay, amenability of the novel mutations taken together; format: cell-based, human; settings: all 31 novel mutations; criteria: relative increase ≥1.20-fold and absolute increase ≥3.0% wild-type at 10 μM migalastat
Description: as §1, §2

[8] = 10 μM migalastat minus baseline
[9] = HEK-293 lysates, 10 μM migalastat 5 days, mean ± SEM

- Absolute increase (% WT) [2, 8]: 26.8 % WT
- Relative increase ([2]; 10 μM migalastat ÷ baseline): 1.55
- 10 μM migalastat α-Gal A activity [2, 9]: 20029 ± 1654 nmol/mg/h
- 10 μM migalastat α-Gal A activity (% WT) [2, 9]: 74.5 ± 4^ % WT
- Absolute increase (% WT) [3, 8]: 7.5 % WT
- Relative increase ([3]; 10 μM migalastat ÷ baseline): 1.28
- 10 μM migalastat α-Gal A activity [3, 9]: 13443 ± 1048 nmol/mg/h
- 10 μM migalastat α-Gal A activity (% WT) [3, 9]: 31.3 ± 2.6 % WT
- Absolute increase (% WT) [4, 8]: 12 % WT
- Relative increase ([4]; 10 μM migalastat ÷ baseline): 1.23
- 10 μM migalastat α-Gal A activity [4, 9]: 24212 ± 1520 nmol/mg/h
- 10 μM migalastat α-Gal A activity (% WT) [4, 9]: 66.8 ± 2.4 % WT
- Absolute increase (% WT) ([5]; 10 μM migalastat minus baseline, baseline BLD): 7.3 % WT
- 10 μM migalastat α-Gal A activity (% WT) ([5]; HEK-293 lysates, 10 μM migalastat 5 days, mean ± SEM, baseline BLD): 7.3 ± 1.4 % WT
- 10 μM migalastat α-Gal A activity ([5]; HEK-293 lysates, 10 μM migalastat 5 days, mean ± SEM, baseline BLD (<142 nmol/mg/hr)): 2809 ± 520 nmol/mg/h
- Absolute increase (% WT) [6, 8]: 25.9 % WT
- Relative increase ([6]; 10 μM migalastat ÷ baseline): 1.97
- 10 μM migalastat α-Gal A activity [6, 9]: 18554 ± 1297 nmol/mg/h
- 10 μM migalastat α-Gal A activity (% WT) [6, 9]: 51.6 ± 2.2 % WT
Compound: OC[C@H]1NC[C@H](O)[C@@H](O)[C@H]1O [migalastat, (2R,3S,4R,5S)-2-(hydroxymethyl) piperdine-3,4,5-triol]
- Absolute increase (% WT) [1, 8]: 5.1 % WT
- Relative increase ([1]; 10 μM migalastat ÷ baseline): 1.35
- 10 μM migalastat α-Gal A activity [1, 9]: 6877 ± 474 nmol/mg/h
- 10 μM migalastat α-Gal A activity (% WT) [1, 9]: 20.3 ± 1.1 % WT
- in vitro response to incubation with migalastat [7]: met amenability criteria
